# Assay results: patent US5064946A, “Therapeutic nucleosides” (priority 1987, dated 1991)
# Assays:
# Kaposi's sarcoma (KS) = assay: Treatment of Kaposi's sarcoma in 9 patients; type: in vivo, human (patients)
# Description: In this study, 9 patients diagnosed as having Kaposi's sarcoma (KS) were treated with AZT and the following effects observed.
# [1] = Ostertag et al. 1974; cited from earlier work
# HIV [2] = assay: AZT/Interferon combinations vs. HIV in vitro in PBMC: reverse transcriptase (RT) activity of supernatants; type: cell-based; settings: rIFNαA 0; for mean reverse transcriptase value: Experiment 2-Day 10
# HIV [3] = assay: AZT/Acyclovir combinations vs. HIV in vitro (protection); type: cell-based
# [4] = tested on: Friend Leukaemia Virus (FLV); settings: Krieg et al. 1978; cited from earlier work
# clinical = settings: human, in vivo
# Description: On days 2 and 3 the patients were also given 500 mg probenecid (PB) every 6 hours and a single dose of AZT was given on day 3.
# E. coli CN314 = assay: In vitro antibacterial MIC and synergy studies against E. coli CN314; settings: Escherichia coli
# [5] = tested on: vaccinia, HSVI and varicella zoster virus (VZV); settings: De Clerq et al. 1980, incl. vaccinia; cited from earlier work
# HIV p24 = assay: AZT/Interferon combinations vs. HIV in vitro in PBMC: HIV p24 antigen by radioimmunoassay; type: cell-based; settings: Experiment 4-Day 14, IFNαA 0
# [6] = tested on: Friend Leukemia Virus (FLV); assay: Anti-Friend Leukemia Virus plaque inhibition in FG-10 cells; type: cell-based; settings: 144 h, read-out: Azidothymidine ED50
# HIV [7] = assay: AZT/Interferon combinations vs. HIV in vitro in PBMC: overall inhibition / synergy (all measures of viral replication, isobologram); type: cell-based; settings: experiment 1, all concentrations of AZT
# [8] = tested on: thrombocytopaenia purpura; assay: Anti-ITP activity: platelet count in a patient with thrombocytopaenia purpura; type: in vivo, human (patient)
# Description: A patient having a platelet count of 38,000 mm^-3 was diagnosed as having thrombocytopaenia purpura (platelet count <100,000 mm^-3) and was treated for 6 weeks with 5 mg/kg of AZT intravenously every 6 hours during which time, their platelet count rose to 140,000 mm^-3. Treatment was then changed to 5 mg/kg/4 hours orally for 4 weeks, discontinued for 4 weeks, when a drop in platelet numbers, to 93,000 mm^-3 after 2 weeks, and to 70,000 mm^-3 after 4 weeks, was seen. Treatment was recommenced at 5 mg/kg/4 hours orally for 5 weeks and the platelet count rose to 194,000 mm^-3.
structure (smiles),measurement,setting,value
Cc1cn([C@H]2C[C@H](N=[N+]=[N-])[C@@H](CO)O2)c(=O)[nH]c1=O [AZT],response,Kaposi's sarcoma (KS); 9 patients,50%
same,patients exhibiting regression of lesions,Kaposi's sarcoma (KS); of 9 patients,Three
same,patients in which lesions progressed,Kaposi's sarcoma (KS); of 9 patients,3 patients
same,patients in which the KS remained stable,Kaposi's sarcoma (KS); of 9 patients,2 patients
same,patients with complete cure,Kaposi's sarcoma (KS); of 9 patients,one
same,response relative to preferred current therapy,Kaposi's sarcoma (KS); vs recombinant a-interferon,"comparable to that obtained with treatment with the preferred current therapy for KS, recombinant a-interferon"
same,cellular toxicity,[1],lack of cellular toxicity
same,mean reverse transcriptase value,HIV [2]; AZT 0.01 μM,159 cpm/10^6 cells × 10^3
same,mean reverse transcriptase value,HIV [2]; AZT 0.02 μM,110 cpm/10^6 cells × 10^3
same,mean reverse transcriptase value,HIV [2]; AZT 0.04 μM,71 cpm/10^6 cells × 10^3
same,mean reverse transcriptase value,HIV [2]; AZT 0.08 μM,31 cpm/10^6 cells × 10^3
same,mean reverse transcriptase value,HIV [2]; AZT 0.16 μM,7 cpm/10^6 cells × 10^3
same,mean RT value,"HIV [2]; Experiment 3-Day 13, AZT 0.02 μM",51 cpm/10^6 cells × 10^3
same,mean RT value,"HIV [2]; Experiment 3-Day 13, AZT 0.04 μM",10 cpm/10^6 cells × 10^3
same,mean RT value,"HIV [2]; Experiment 3-Day 13, AZT 0.08 μM",2 cpm/10^6 cells × 10^3
same,mean RT value,"HIV [2]; Experiment 3-Day 13, AZT 0.16 μM",5 cpm/10^6 cells × 10^3
same,mean RT value,"HIV [2]; Experiment 4-Day 11, AZT 0.02 μM",8 cpm/10^6 cells × 10^3
same,mean RT value,"HIV [2]; Experiment 4-Day 11, AZT 0.04 μM",4 cpm/10^6 cells × 10^3
same,mean RT value,"HIV [2]; Experiment 4-Day 11, AZT 0.08 μM",1 cpm/10^6 cells × 10^3
same,inhibition at 8 µM,"HIV [3]; Human immunodeficiency virus 1, T-cell, AZT alone, 8 μM",100%
same,AZT concentration required to achieve 100% protection,HIV [3]; with ACV 0 μg/ml,8 µM
same,activity against FLV in in vitro experiments,[4],active against FLV
same,decrease in the total body clearance (Cl/F),clinical,3 -fold
same,peak (Cmax) and trough (Cmin) levels on day 3 vs day 1,clinical,significantly higher than the corresponding levels on day 1
same,tl/2,"clinical; po, 2 mg/kg",0.89 h
same,AUC,"clinical; po, 2 mg/kg, AUC",3.7 µM·h
same,Cmax,"clinical; po, 2 mg/kg, Cmax",3.74 µM
same,Tmax,"clinical; po, 2 mg/kg, Tmax",30 min
same,half-life,"clinical; po, 2 mg/kg, mean half-life (tl/2)",52.8 min
same,half-life,"clinical; po, 2 mg/kg, tl/2",52.2 min
same,MIC,E. coli CN314,1 µg/mL
same,activity against any viruses used in their tests,[5],no appreciable activity
same,HIV p24,HIV p24; AZT 0.02 μM,100-200 ng protein/ml
same,HIV p24,HIV p24; AZT 0.04 μM,25-30 ng protein/ml
same,HIV p24,HIV p24; AZT 0.08 μM,11.2 ng protein/ml
same,EC50,[6],5 nM
same,inhibition of HIV,HIV [7],fully inhibitory
same,platelet count,[8]; 2 weeks after discontinuation,"93,000 mm^-3"
same,platelet count,[8]; 4 weeks after discontinuation,"70,000 mm^-3"
same,platelet count,"[8]; after 6 weeks 5 mg/kg i.v. every 6 hours (start 38,000)","140,000 mm^-3"
same,platelet count,"[8]; treatment recommenced, 5 mg/kg/4 hours orally for 5 weeks","194,000 mm^-3"
